Measurements reported in patent US11672787B2, “Compounds as mPGES-1 inhibitors” (Khondrion IP B.V., priority 2017, dated 2023).
Where a name gives a salt, the structure may show the parent alone.

How the values were obtained:
[1] = molecular target: T1, mPGES-1 (Mus musculus, UniProt Q9JM51); assay: Microsomal PGES activity: conversion of PGH2 to PGE2 by microsomal fractions of LPS-treated RAW 264.7 cells; format: biochemical, murine; settings: for IC50: microsomal fraction of RAW 264.7 cells treated 24 hours with LPS 1 μg/mL, conversion of PGH2 to PGE2, read-out: IC50 (inhibition of mPGES-1 enzyme activity); for mPGES-1 activity in purified microsomes: 30 minutes
T1 construct: endogenous in cells; host or cells: RAW 264.7 cells treated 24 h with 1 ug/mL LPS; 100,000 g microsomal pellet
T1 sequence (Q9JM51 1-153): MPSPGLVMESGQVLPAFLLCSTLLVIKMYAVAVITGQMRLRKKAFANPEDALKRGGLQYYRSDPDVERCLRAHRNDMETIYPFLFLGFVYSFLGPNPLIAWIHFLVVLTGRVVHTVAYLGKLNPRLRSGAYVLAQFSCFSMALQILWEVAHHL
Experimental: FIG. 6. mPGES-1 activity was assayed as conversion of PGH2 to PGE2 by microsomal fractions of RAW 264.7 cells treated for 24 hours with LPS 1 μg/mL to increase mPGES-1 expression. The microsomal fraction was exposed to increasing concentrations of compound to be tested, or 3 μM of know mPGES-1 inhibitors MK866 or PF9184 as positive controls. PGE2 level was normalized on the vehicle treated microsomal samples (100%). (A) compound I-IVb-X; (B) compound I-IVb-AE; (C) compound I-IVb-A-HCl; (D) compound I-IVb-I.
PGES activity was measured by assessment of the conversion of PGH2 to PGE2. In brief, after 24 hours incubation with 1 μg/mL LPS the cells were harvested and lysed by sonication (three times for 10 seconds each, at 1 min intervals) in 300 μl of 1 M Tris-HCl (pH 8.0). After centrifugation of the lysate at 12,000 g for 10 min at 4° C., the supernatant was collected and further centrifuged at 100,000 g for 1 h at 4° C. The pellets (microsomal membranes) were resuspended in 100 μl of 0.1M Tris-HCl, pH 8.0, containing protease inhibitors) and subjected to measurement of microsomal PGES activity. For measurement of PGES activity, an aliquot of each sample equivalent to 50 μg of protein was incubated with 2 μg of PGH2 for 60 s at 24° C. in 0.1 ml of 1 M Tris-HCl containing 2 mM glutathione (Sigma-Aldrich) and 14 μM indomethacin, in the absence or presence of the tested compounds. The reaction was terminated by the addition of 100 mM FeCl2, and further incubated at 20-25° C. for 15 min. After centrifugation of the reaction mixture, the PGE2 concentration in the supernatant was measured with the PGE2 high sensitivity EIA kit (Enzo Life Science) according to manufacturer's instructions.
RAW 264.7 macrophage cells were treated with the inflammatory stimulus LPS to increase the expression of mPGES-1. After 24 hours incubation the microsomes were isolated and exposed to increasing concentration of compound I-IVb-X or a single concentration of previously described mPGES-1 inhibitors MK866 and PF9184 for 30 minutes. The activity of mPGES-1 was then assayed in the microsomes fraction as the conversion of PGH2 to PGE2.
Using the methods as described in Example 1, additional compounds were tested. Table 1 provides an overview of the compounds that were tested, along with corresponding IC50 values. FIGS. 6B, 6C, and 6D show corresponding inhibition curves for I-IVb-AE, I-IVb-A-HCl, and I-IVb-I, respectively.

[2] = system: human primary skin fibroblasts; assay: Prostaglandin levels (ELISA) in supernatant of LPS- or IL-1β-stimulated human primary skin fibroblasts; format: cell-based; settings: 24 hours
Experimental: FIG. 3. (A-B) Levels of PGE2 (A) and PGD2 (B) in supernatant of human primary skin fibroblasts exposed for 24 hours to vehicle, 1 μg/mL LPS or 1 μg/mL Interleukin-1β (IL-1β), normalized on vehicle. (C-D) Levels of PGE2 and PGD2 in supernatant of human primary skin fibroblasts exposed for 24 hours to 1 μg/mL LPS (C) or 1 μg/mL IL-1β (D) alone (set as 100%) or in combination with increasing concentrations of compound I-IVb-X (indicated as KH).
The cells were maintained in M199, HEPES (Thermo Fischer Scientific) containing 10% FBS (#758093, Greiner Bio-one), 100 IU/ml penicillin and 100 μg/ml streptomycin (#30-002-CI, Corning) under a humidified atmosphere of 5% CO2 at 37° C. The cells were passaged by trypsinization every 4-5 days until they reached the passage number 20, and then discarded. The cells were grown to 80% confluence, trypsinized and then cultured in 96-well plates (4×10^3 cells/well) 24 hours before an experiment.
The concentration of the PGE2, PGD2 and 6-keto-PGF1α in culture medium was determined by Enzyme-Linked Immuno Sorbent Assay (ELISA) using, respectively, the PGE2 high sensitivity EIA kit (Enzo Life Science), the Prostaglandin D2-MOX ELISA Kit (Cayman Chemicals) and the 6-keto Prostaglandin F1α ELISA Kit (Cayman Chemicals), according to the manufacturer's instructions. […]

[3] = system: RAW 264.7 murine macrophage cells; assay: Prostaglandin levels (ELISA) in supernatant of LPS-stimulated RAW 264.7 cells; format: cell-based; settings: 1 μg/mL LPS, 24 hours, increasing concentrations
Experimental: FIG. 2. (A-C) Levels of prostaglandins (PG) PGE2 (A), PGD2 (B) and 6-keto PGF1a (C) in supernatant of RAW 264.7 murine macrophage cells exposed for 24 hours to vehicle or 1 μg/mL lipopolysaccharide (LPS), normalized on vehicle. (D-F) Levels of PGE2, PGD2 and 6-keto PGF1a in supernatant of RAW 264.7 murine macrophage cells exposed for 24 hours to vehicle or 1 μg/mL LPS, alone (set as 100%) or in combination with increasing concentrations of compound I-IVb-X (a compound of general structure (I) wherein T is of general structure (IVb), in the S,R-configuration, and wherein as per compound X the following apply: L=L^19; R^1═H; R^2—R^2′=L^3; R^3═H; indicated as KH) (D), non-selective COX inhibitor indomethacin (E) or COX-2 inhibitor celecoxib (F).
RAW264.7 cells (Sigma-Aldrich, St-Louis) were maintained in DMEM (Thermo Fisher Scientific) containing 10% FBS (Greiner Bio-one), and antibiotics (100 U/ml penicillin, 100 μg/ml streptomycin) under a humidified atmosphere of 5% CO2 at 37° C. The cells were grown to 80% confluence, scraped and then cultured in either 96-well plates (2×10^4 cells/well) or six-well plates (4×10^5 cells/well) for 6-24 hours before an experiment.
The concentration of the PGE2, PGD2 and 6-keto-PGF1α in culture medium was determined by Enzyme-Linked Immuno Sorbent Assay (ELISA) using, respectively, the PGE2 high sensitivity EIA kit (Enzo Life Science), the Prostaglandin D2-MOX ELISA Kit (Cayman Chemicals) and the 6-keto Prostaglandin F1α ELISA Kit (Cayman Chemicals), according to the manufacturer's instructions. Samples (100 μl) of culture medium from each well were harvested and diluted with the assay buffer.
RAW 264.7 macrophage cells were treated with the inflammatory stimulus LPS alone or in combination with increasing concentrations of compound I-IVb-X (a compound of general structure (I) wherein T is of general structure (IVb), in the S,R-configuration, and wherein as per compound X the following apply: L=L^19; R^1═H; R^2—R^2′=L^3; R^3═H), the NSAID indomethacin or the Coxib Celecoxib. After 24 hours incubation the levels of PGE2, PGD2 and 6-keto PGF1a were quantified in the cell supernatant by ELISA. […] Similar results were obtained with compound I-IVb-X in human primary skin fibroblasts.

[4] = single concentration (3 μM), positive controls

Molecule `CC1=C(C)C(=O)C(CC[C@](C)(O)C(=O)N2CCNCC2)=C(C)C1=O` [I-IVb-A-HCl] has an IC50 [1] of 1020 nM.
`CC1=C(C)C(=O)C(CC[C@](C)(O)C(=O)N2CCC(NC(=O)[C@H](C)N)CC2)=C(C)C1=O` [I-IVb-AB-HCl] was tested, and the IC50 [1] was 238 nM.
In the case of `CC1=C(C)C(=O)C(CC[C@](C)(O)C(=O)N[C@H]2CC[C@H](N)CC2)=C(C)C1=O` [I-IVb-AE], the IC50 [1] is reported as 18 nM.
In the case of `CC1=C(C)C(=O)C(CC[C@](C)(O)C(=O)N[C@H]2CN3CCC2CC3)=C(C)C1=O` [I-IVb-AI-HCl], the IC50 [1] is reported as 726 nM.
`CC1=C(C)C(=O)C(CC[C@](C)(O)C(=O)Nc2ccc(CN)cc2)=C(C)C1=O` [I-IVb-AJ-HCl] gave an IC50 [1] of 1050 nM.
`CC1=C(C)C(=O)C(CCC(C)(O)C(=O)NCCN(C)C)=C(C)C1=O` (stereo not shown) [I-IVb-I] showed an IC50 [1] of 1120 nM.
`CC1=C(C)C(=O)C(CCC(C)(O)C(=O)N[C@@H](CCCN)C(=O)O)=C(C)C1=O` (stereo partly shown) [I-IVb-N] gave an IC50 [1] of 10.4 nM.
In the case of `CC1=C(C)C(=O)C(CC[C@](C)(O)C(=O)N[C@@H]2CCCNC2)=C(C)C1=O` [I-IVb-X], the “level of PGE2 in supernatant” value ([2]; 1 μg/mL IL-1β) is reported as “efficiently reduce”, the “level of PGE2 in supernatant” value ([2]; 1 μg/mL LPS) is reported as “efficiently reduce” and the “level of 6-keto PGF1a in cell supernatant” value [3] is reported as “no effect”. The “level of PGD2 in cell supernatant” value [3] was “no effect”, the “level of PGE2 in cell supernatant” value [3] was “dose-dependently reduce” and the “mPGES-1 activity in purified microsomes” value ([1]; increasing concentration of compound) was “decreased”. The IC50 [1] was 458 nM.
In the case of `CC(C)c1ccc2c(c1)c(SC(C)(C)C)c(CC(C)(C)C(=O)O)n2Cc1ccc(Cl)cc1` [MK866, reference compound], the “mPGES-1 activity in purified microsomes” value [1, 4] is reported as “decreased”.
`O=C(Nc1ccc(-c2ccc(Cl)c(Cl)c2)cc1)C1=C(O)c2ccccc2S(=O)(=O)N1` [PF9184, reference compound] was tested, and the “mPGES-1 activity in purified microsomes” value [1, 4] was “decreased”.
`COc1ccc2c(c1)c(CC(=O)O)c(C)n2C(=O)c1ccc(Cl)cc1` [indomethacin, reference compound] was tested, and the “level of 6-keto PGF1a in cell supernatant” value [3] was “dose-dependently reduced”, the “level of PGD2 in cell supernatant” value [3] was “dose-dependently reduced” and the “level of PGE2 in cell supernatant” value [3] was “dose-dependently reduced”.
